Test results from paper PMC6214853, “Cytotoxic, tubulin-interfering and proapoptotic activities of 4′-methylthio-trans-stilbene derivatives, analogues of trans-resveratrol” (Cytotechnology, 2018).
Several values for one entry are separate records, joined by “and”; a condition that tells them apart may be missing. Equal values may be shown once.

What was measured:
MCF7 cells [1] = assay: MTT cell viability assay, MCF7; type: cell-based, human; conditions: MCF7, 48 h treatment
Method: (§1) Spontaneously immortalized human keratinocyte HaCaT cells were purchased from Cell Lines Service (CLS, Eppelheim, Germany). Human epidermoid carcinoma A431 cells were obtained from Deutsche Sammlung von Mikroorganismen und Zellkulturen (DSMZ, Braunschweig, Germany). MCF7 (ECACC 86012803) and MCF12A (ECACC10782) cells were purchased from the European Collection of Cell Cultures (Salisbury, Wiltshire, UK). MCF12A cells were cultured in 95% 1:1 mixture of DMEM and Ham’s F12 medium, 20 ng/mL human epidermal growth factor, 500 ng/mL hydrocortisone and 5% horse serum. The other cell lines were cultured in Dulbecco’s modified Eagle’s medium (DMEM) supplemented with 10% fetal bovine serum and 1% (v/v) antibiotics solution. Cells were incubated at 37 °C in an atmosphere consisting of 95% air and 5% CO2 in a humidified incubator until they reached 70% confluency. 1 × 10^6 cells were seeded in 40 mm ø culture dishes. After 24 h of preincubation in DMEM containing 5% of FBS, the cells were treated with resveratrol or its analogs, and the incubation was continued for a subsequent 24 h to assess apoptosis or cell cycle distribution. Then, the cells were harvested. Control cells were treated with DMSO, at a concentration of less than 0.1%.
(§2) The effect of resveratrol and 4′-methylthiostilbenes on cell viability was assessed with MTT assay according to the standard protocol described earlier (Zielińska-Przyjemska et al. [2015]). Briefly, the cells were seeded in 96-well plates at a density of 1 × 10^4 cells/well in 100 μL of growth medium. They were allowed to attach overnight and either resveratrol or the appropriate analog was then added to the culture medium at various concentrations (0–200 μM) for 48 h at 37 °C. The cells were subsequently incubated with MTT (0.5 mg/mL) solution for another 4 h. The water insoluble formazan crystals were solubilized in acidic isopropanol before the measurement of absorbance using a microplate reader (TECAN Infinite M200, TK Biotech, Warsaw, Poland) at 540 and 690 nm. All of the experiments were repeated three times, with at least three measurements per assay.

HaCaT cells [2] = assay: MTT cell viability assay, HaCaT; type: cell-based; conditions: Homo sapiens, 48 h treatment
Method: as §1, §2

A431 cells [3] = assay: MTT cell viability assay, A431; type: cell-based; conditions: Homo sapiens, A-431, A431, 48 h treatment
Method: as §1, §2

MCF12A cells [4] = assay: MTT cell viability assay, MCF12A; type: cell-based; conditions: Homo sapiens, MCF-12A, 48 h treatment
Method: as §1, §2

purified porcine tubulin = target: T1, purified porcine tubulin (Sus scrofa, UniProt P02554); assay: Tubulin polymerization assay in vitro; type: biochemical; conditions: absorbance at steady state
T1 construct: purified porcine tubulin purchased from Cytoskeleton Inc; purchased Cytoskeleton Inc. (Denver, CO, USA)
Method: Tubulin polymerization was assessed with the use of purified porcine tubulin purchased from Cytoskeleton Inc. (Denver, CO, USA) in accordance with a protocol recommended by the manufacturer. Tubulin was dissolved in a buffer containing: 80 mM PIPES pH 6.9, 2 mM MgCl2, 0.5 mM EGTA and 1 mM GTP, at a final concentration of 3 mg/mL and placed in a 96-well plate (0.3 mg per well). The polymerization reaction was started by increasing temperature from 4 to 37 °C upon transfer of the reaction mixture to a pre-warmed plate. The assembly of microtubules was monitored spectrophotometrically by measuring absorbance at 350 nm for 60 min, at a temperature of 37 °C. Paclitaxel was used as stabilizing positive control.

MCF12A cells [5] = assay: Flow cytometry cell cycle analysis, MCF12A; type: cell-based, human; conditions: 24 h incubation, PI flow cytometry
Method: as §1
(§3) The cells harvested after a 24 h incubation with the test compounds were washed with 1 mL of PBS and fixed with 70% ethanol. The ethanol was added dropwise to the cell pellet while vortexing to ensure fixation of all cells and minimizing clumping. After a 30 min incubation, the cells were washed twice in PBS, and 250 µL of a solution containing 50 µg/mL PI, 100 µg/mL RNase A (Sigma, St. Louis, MO, USA) in PBS was added to the pellet and incubated for 30 min at 37 °C in the dark. The stained cells were analyzed by FACSCanto Flow Cytometer (Becton–Dickinson). Camptothecin at a final concentration of 50 nM was used as a positive control. Data analysis and acquisition were performed using FACS Diva software (Becton–Dickinson).

MCF7 cells [6] = assay: Flow cytometry cell cycle analysis, MCF7; type: cell-based, human; conditions: MCF7, 24 h incubation, PI flow cytometry
Method: as §1, §3

[7] = tested on: MCF12A, MCF7, HaCaT and A431 cell lines; assay: Annexin-V/propidium iodide assay; type: cell-based, human; conditions: 24 h incubation, all four cell lines
Method: as §1
Apoptosis and necrosis were detected using Annexin-V-FLUOS Staining Kit assay (Roche Diagnostics GmbH, Mannheim, Germany), according to the manufacturer’s instruction. After have been treated with test compounds for 24 h, the cells were transferred (1 × 10^6 cells in 100 µL of the solution) into 5 mL culture tubes followed by the addition of 2 µL of Annexin-V-Fluos and 2 µL PI. Camptothecin at a final concentration of 50 nM was used as a positive control. Samples were gently mixed and incubated for 15 min at RT (25 °C) in the dark. Fluorescence of cell surface (AV) and DNA-bound PI markers was analyzed with flow cytometry (Becton–Dickinson, San Jose, CA, USA) at 488 nm excitation wavelength, emission 518 and 617 nm for AV and PI, respectively.

[8] = tested on: MCF12A, MCF7, HaCaT and A431 cell lines; assay: TUNEL assay; type: cell-based, human; conditions: 24 h incubation, versus control
Method: as §1
TUNEL assay was applied to detect apoptotic cells using In Situ Cell Death Detection Kit (Roche Diagnostics, Indianapolis, IN, USA). Briefly, after incubation with the test compounds for 24 h, the cells were detached with a 0.5% trypsin–EDTA solution and collected. Cell suspensions were fixed with 4% paraformaldehyde and permeabilized with 0.1% Triton X-100 in 0.1% sodium citrate. After the TUNEL reaction mixture was added, cells were incubated for 1 h at 37 °C in a humidified chamber and samples were analyzed by FACSCanto Flow Cytometer (Becton–Dickinson). Camptothecin at a final concentration of 50 nM was used as a positive control.

A431 cells [9] = assay: Flow cytometry cell cycle analysis, A431; type: cell-based, human; conditions: A431, 24 h incubation, PI flow cytometry
Method: as §1, with “Control cells were treated with DMSO, at a concentration of less than 0.1%.” left out
(§4) The cells harvested after a 24 h incubation with the test compounds were washed with 1 mL of PBS and fixed with 70% ethanol. […] The stained cells were analyzed by FACSCanto Flow Cytometer (Becton–Dickinson). […]

MCF7 cells [10] = tested on: MCF7 cells; set-up: method as in Androutsopoulos et al. [2011]; conditions: 96 h exposure; ref Androutsopoulos et al. [2011]; cited from earlier work
tubulin = tested on: tubulin; set-up: method as in Ma and coworkers ([2008]); conditions: ref Ma and coworkers ([2008]), cited from earlier work
HaCaT cells [11] = assay: Flow cytometry cell cycle analysis, HaCaT; type: cell-based, human; conditions: 24 h incubation, PI flow cytometry
Method: as §1, with “Control cells were treated with DMSO, at a concentration of less than 0.1%.” left out
as §4

T1 sequence (P02554 whole entry): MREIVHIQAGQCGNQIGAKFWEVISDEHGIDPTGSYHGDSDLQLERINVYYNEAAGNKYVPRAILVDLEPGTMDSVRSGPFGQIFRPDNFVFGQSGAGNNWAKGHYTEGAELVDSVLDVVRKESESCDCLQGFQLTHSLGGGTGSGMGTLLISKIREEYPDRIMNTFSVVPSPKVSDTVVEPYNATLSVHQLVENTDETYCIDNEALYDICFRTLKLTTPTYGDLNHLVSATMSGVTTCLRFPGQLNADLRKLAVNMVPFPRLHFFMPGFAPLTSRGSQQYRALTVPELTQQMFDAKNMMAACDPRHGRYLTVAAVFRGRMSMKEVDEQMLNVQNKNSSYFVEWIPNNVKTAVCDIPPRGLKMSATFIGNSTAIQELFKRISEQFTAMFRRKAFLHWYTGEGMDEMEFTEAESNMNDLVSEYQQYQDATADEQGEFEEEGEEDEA
T1 sequence (P02550 whole entry partner): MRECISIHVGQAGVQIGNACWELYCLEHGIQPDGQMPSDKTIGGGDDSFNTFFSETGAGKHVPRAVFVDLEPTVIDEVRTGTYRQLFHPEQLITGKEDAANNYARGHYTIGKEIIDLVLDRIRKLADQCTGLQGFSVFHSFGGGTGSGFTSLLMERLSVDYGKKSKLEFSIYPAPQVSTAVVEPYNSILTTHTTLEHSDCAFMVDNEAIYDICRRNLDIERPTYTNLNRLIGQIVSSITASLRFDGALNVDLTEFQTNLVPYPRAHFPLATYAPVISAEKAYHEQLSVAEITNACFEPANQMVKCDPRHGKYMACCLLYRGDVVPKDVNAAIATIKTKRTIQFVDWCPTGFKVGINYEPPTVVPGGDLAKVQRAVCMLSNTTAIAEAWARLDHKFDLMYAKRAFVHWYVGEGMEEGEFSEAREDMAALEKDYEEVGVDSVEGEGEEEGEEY

SMILES | IC50 (MCF7 cells [1]; Homo sapiens, MCF7, 48 h) [µM] | IC50 (A431 cells [3]) [µM] | IC50 (HaCaT cells [2]) [µM] | IC50 (MCF12A cells [4]) [µM] | Tubulin polymerization, steady state level (purified porcine tubulin; 10 µM compound) | Cell cycle effect (MCF12A cells [5]) | Cell cycle effect (MCF7 cells [6]) | Apoptosis induction (Annexin-V/PI) [7] | Number of TUNEL positive cells [8] | further results
COc1cccc(/C=C/c2ccc(SC)cc2)c1OC [2,3-Dimethoxy-4′-methylthio-trans-stilbene] | 10.6 ± 6.1 | 157 ± 3 | 51.8 ± 7.3 |  |  |  |  |  |  | 
COc1cc(OC)c(OC)cc1/C=C/c1ccc(SC)cc1 [2,4,5-MTS, 2,4,5-Trimethoxy-4′-methylthio-trans-stilbene] | 5.1 ± 1.4 | 22.6 ± 7.2 | 50.9 ± 13.3 | 10 ± 3 | 123.2 % of control and 123.2 ± 4.5 % of control | G0/G1 phase arrest | G0/G1 phase arrest | induced apoptosis in all the cell lines | statistically significant increase in the number of TUNEL positive cells was observed only in HaCaT and A431 | Tubulin polymerization, steady state level (purified porcine tubulin; 5 µM compound): 106.3 ± 4.2 % of control
COc1ccc(OC)c(/C=C/c2ccc(SC)cc2)c1 [2,5-Dimethoxy-4′-methylthio-trans-stilbene] | 10.2 ± 6.6 | 47.1 ± 9 | 65 ± 24.5 |  |  |  |  |  |  | 
COc1ccccc1/C=C/c1ccc(SC)cc1 [2-Methoxy-4′-methylthio-trans-stilbene] | 27.3 ± 12.4 | 241 ± 10 | 106 ± 9.3 |  |  |  |  |  |  | 
COc1ccc(/C=C/c2cc(OC)c(OC)c(OC)c2)cc1 [DMU-212, 3,4,5,4′-trans-tetramethoxystilbene] |  |  |  |  |  |  |  |  |  | Toxicity in MCF7 cells (MCF7 cells [10]): submicromolar toxicity; Effect on microtubule polymerization (tubulin; DMU-212 at 2.5 μM versus paclitaxel at 10 μM): comparable to that of paclitaxel
CC(=O)O[C@H]1C(=O)[C@@]2(C)[C@H]([C@H](OC(=O)c3ccccc3)[C@]3(O)C[C@H](OC(=O)[C@H](O)[C@@H](NC(=O)c4ccccc4)c4ccccc4)C(C)=C1C3(C)C)[C@]1(OC(C)=O)CO[C@@H]1C[C@@H]2O [Paclitaxel, reference compound] |  |  |  |  | 142.3 % of control and 142.3 ± 9.2 % of control |  |  |  |  | 

Second part, led by results:

IC50 (MCF7 cells [1]; Homo sapiens, MCF7, 48 h) [µM] | IC50 (A431 cells [3]) [µM] | SMILES | IC50 (HaCaT cells [2]) [µM] | IC50 (MCF12A cells [4]) [µM] | Tubulin polymerization, steady state level (purified porcine tubulin; 10 µM compound) | Cell cycle effect (MCF12A cells [5]) | Cell cycle effect (MCF7 cells [6]) | Apoptosis induction (Annexin-V/PI) [7] | Number of TUNEL positive cells [8] | further results
2.07 | 19.3 ± 5.5 | COc1cc(/C=C/c2ccc(SC)cc2)cc(OC)c1OC [3,4,5-MTS, 3,4,5-Trimethoxy-4′-methylthio-trans-stilbene] | 10 ± 4.6 | 25.7 ± 4.3 | 132.9 % of control and 132.9 ± 17.1 % of control | G2/M phase arrest | G2/M phase arrest | induced apoptosis in all the cell lines | statistically significant increase in the number of TUNEL positive cells was observed only in HaCaT and A431 | IC50 (MCF7 cells [1]): 2.1 ± 0.4 µM; Tubulin polymerization, steady state level (purified porcine tubulin; 5 µM compound): 113.4 ± 3.6 % of control; Cell cycle effect (A431 cells [9]): G2/M phase arrest
4.8 ± 3.4 | 45.4 ± 7.2 | COc1cc(/C=C/c2ccc(SC)cc2)cc(OC)c1 [3,5-Dimethoxy-4′-methylthio-trans-stilbene] | 25.4 ± 13.9 |  |  |  |  |  |  | 
6.6 ± 3.7 | 141 ± 2.8 | COc1cccc(/C=C/c2ccc(SC)cc2)c1 [3-Methoxy-4′-methylthio-trans-stilbene] | 183 ± 38.7 |  |  |  |  |  |  | 
24.6 ± 3.8 | 49.4 ± 3.8 | Oc1ccc(/C=C/c2cc(O)cc(O)c2)cc1 [Resveratrol, trans-3,4′,5-trihydroxystilbene] | 85.2 ± 29.2 | 93.5 ± 12.1 |  | blocked the cell cycle in S-phase | blocked the cell cycle in S-phase | apoptosis was evident in all the tested cell lines | statistically significant in all the cell lines studied | Cell cycle effect (A431 cells [9]): blocked the cell cycle in S-phase; Cell cycle effect (HaCaT cells [11]): arrested in G0/G1-phase; Effect on tubulin polymerization (tubulin): does not influence tubulin polymerization
